Kd and IC50 data for 17 compounds are collected here from patent US20130079345A1, “[…] ACTIVE DISUBSTITUTED TRIAZINE DERIVATIVES” (BAYER INTELLECTUAL PROPERTY GMBH, priority 2010, published 2013).

For orientation: IC50 means the concentration needed to halve the response being measured.

Where a name gives a salt, the structure may show the parent alone. Some results are limits rather than exact numbers.

Test [1] concerns the target T1, CDK9/Cyclin K (Homo sapiens, UniProt P50750).
T1 construct: purchased Invitrogen
Nature of the test: LanthaScreen Eu Kinase Binding Assay, CDK9/Cyclin K. Particulars: tracer 236, read-out: Affinity (Kd) CDK9/Cyclin K. In outline: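 TR-FRET competition binding with Alexa Fluor 647 tracer and Eu-anti-GST antibody; e.g. CDK2/Cyclin A 15 nM with tracer 236 60 nM (working solutions). Kinase buffer: HEPES 20 mM pH 8.0, MgCl2 10 mM, DTT 1 mM, Brij-35 0.01%; 8-point 1:3 series, 1 h at room temperature; Kd from sigmoidal dose-response curves.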
(In general: TR-FRET usually uses a lanthanide donor and a delayed reading to cut background.)

Test [2] relates to NF-kappaB reporter gene activation in HEK293 cells. As to the kind of experiment: NF-kappaB reporter assay. It is filed as cell-based. The conditions noted are these: Homo sapiens, 20 ng/ml TNF alpha, 5 h. The protocol: Cells were maintained in RPMI cell culture medium+glutamine (PAN Biotech GmbH, Aidenbach, Germany) supplemented with 10% fetal calf serum (PAA Laboratories GmbH, Pasching, Austria) and grown at 37° C., 5% CO2. HEK293 cells grown to 50% confluence were transfected with the Amaxa® Cell Line Nucleofector® Kit V (Lonza, Basel, Switzerland, catalog #VCA-1003). Transfections were performed according to manufacturer's optimized protocol for transfection of HEK293 cells. In brief, 2×10^5 cells were transfected with 5 μg highly purified plasmid DNA. Cells were transfected with a NF-kappa B reporter plasmid (pNFkBluc), pTALluc for control, or pMAXGFP for transfection control. After transfection, cells were taken up in 500 μL RPMI1640 cell culture medium, incubated for 1 h at 37° C., and 4.5 ml DMEM without phenol red were added per transfection. Transfected cells were seeded in 96 well plates (Greiner Bio-One, Frickenhausen, Germany, catalog #655098) with 100 μL cell suspension per well and incubated for 48 h. To each well, 100 μL DMEM with 2× concentrated compound diluted from 10 mM DMSO stocks, or 100 μL DMEM with 0.4% DMSO for control wells, was added. The compounds of general formula (I) summarized in Table 6 were used in this assay. Cells were stimulated with 20 ng/ml TNF alpha, and plates were incubated for 5 h at 37° C./5% CO2. Cell culture supernatants were removed to leave 100 μl medium per well, followed by addition of 100 μl Bright Glo luciferase assay reagent (Promega, Madison, Wis., USA, catalog #E2620), and shaking for 5 minutes in the dark. Luminescence was measured with a Victor Photospectrometer (Perkin Elmer, Waltham, Mass., USA). […], values were calculated with the software Excel Fit (IDBS, Guildford, UK) from 2-fold dilution series comprising at least 10 concentrations in duplicates.
In general terms: In a reporter assay the amount or activity of a reporter protein is the signal.

In test [3] the target is T2, CDK4/CyclinD1 (Homo sapiens, UniProt P11802).
T2 construct: purchased Invitrogen
T2 sequence (P11802 whole entry): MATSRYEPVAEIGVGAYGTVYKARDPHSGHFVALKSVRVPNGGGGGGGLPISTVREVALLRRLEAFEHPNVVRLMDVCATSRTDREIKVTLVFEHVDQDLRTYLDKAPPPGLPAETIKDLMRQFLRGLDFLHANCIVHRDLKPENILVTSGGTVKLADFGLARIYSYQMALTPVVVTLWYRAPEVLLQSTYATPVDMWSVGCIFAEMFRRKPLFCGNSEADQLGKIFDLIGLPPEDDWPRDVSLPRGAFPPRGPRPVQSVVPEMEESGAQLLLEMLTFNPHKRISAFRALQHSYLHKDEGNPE
T2 sequence (P24385 whole entry partner): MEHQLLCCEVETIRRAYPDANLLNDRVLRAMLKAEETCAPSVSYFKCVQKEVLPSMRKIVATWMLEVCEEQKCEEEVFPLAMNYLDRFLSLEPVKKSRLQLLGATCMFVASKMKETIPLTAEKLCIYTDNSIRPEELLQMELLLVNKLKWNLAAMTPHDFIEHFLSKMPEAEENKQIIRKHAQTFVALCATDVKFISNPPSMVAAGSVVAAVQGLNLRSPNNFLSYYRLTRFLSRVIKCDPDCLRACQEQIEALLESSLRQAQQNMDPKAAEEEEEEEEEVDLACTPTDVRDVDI
As to the kind of experiment: Lance Ultra KinaSelect Assay, CDK4. The conditions noted are these: ATP 90 μM, read-out: Inhibition (IC50) CDK4. It is filed as biochemical. The protocol: This protocol describes how the Lance Ultra KinaSelect Assay was performed to determine half maximal inhibitory concentration (IC50) of compounds of general formula (I) and CDK/Cyclin complexes. The principle behind this enzymatic assay is based upon the phosphorylation of the ULight-Peptide Substrat. It is detected by using a specific EU-labeled anti-phospho peptide antibody. The binding of the Eu-labeled anti-phospho peptide antibody to the phosphorylated U Light labeled peptide gives rise to a FRET-signal. Binding of an inhibitor to the kinase prevents phosphorylation of the ULight-MBP Substrat, resulting in a loss of FRET.
The compounds of general formula (I) summarized in Table 5 were diluted from a 10 mM DMSO stock solution 1:10 in a total volume of 15 μL DMSO. This compound predilution was then serial diluted 1:3 over 8 steps in DMSO and briefly spun down. Each compound solution was now diluted 1:20 in Enzymatic Buffer (HEPES: 50 mM, pH: 7.5; MgCl2: 10 mM; EGTA: 1 mM; DTT: 2 mM; Tween-20: 0.01%), mixed thoroughly and spun down. For every sample, 2 μL of the diluted compound were mixed with 6 μL CDK/Cyclin/Substrat solution and […] in a well of a small volume 384 well plate (Corning Incorporated, Corning, N.Y., USA; order no. 3673). […] For positive controls, in each well 2 μL of DMSO solution (1% final DMSO assay concentration) was mixed with 6 μL CDK/Cyclin/Substrat (appropriate final concentration see Table 3) and 2 μL Tracer ATP solution (appropriate final concentration see Table 3). Positive and negative controls were calculated from at least 8 different sample wells. The 384 well plates were mixed in a Teleshaker plate mixer (Beckman Coulter, Brea, Calif., USA) at 2000 rpm for 40 sec, and incubated for 1 h at room temperature. Before reading, 10 μL detection buffer (Lance Detection Buffer 1×; EDTA: […]; Eu-Anti-P-MBP: see Table 3) was added. The FRET signal was measured at 340 nm excitation, 665 nm and 615 nm emission (for the kinase tracer and LanthaScreen Eu-AB, respectively) with an Envision spectrophotometer (Perkin Elmer, Waltham, Mass., USA) with 50 μs delay and 300 μs integration time. IC50 values were determined from the sigmoidal dose response curves with the software Quattro Workflow (Quattro GmbH, Munich, Germany).

T1 sequence (P50750 whole entry): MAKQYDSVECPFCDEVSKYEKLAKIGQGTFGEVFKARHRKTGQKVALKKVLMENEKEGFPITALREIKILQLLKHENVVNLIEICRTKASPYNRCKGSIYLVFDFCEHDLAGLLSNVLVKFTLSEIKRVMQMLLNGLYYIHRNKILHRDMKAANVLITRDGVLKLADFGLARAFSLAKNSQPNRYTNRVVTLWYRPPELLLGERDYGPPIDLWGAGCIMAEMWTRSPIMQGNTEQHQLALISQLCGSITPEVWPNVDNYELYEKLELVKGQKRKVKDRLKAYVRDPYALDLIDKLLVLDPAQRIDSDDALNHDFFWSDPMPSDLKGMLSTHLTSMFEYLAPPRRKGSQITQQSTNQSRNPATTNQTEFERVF
T1 sequence (O75909 whole entry partner): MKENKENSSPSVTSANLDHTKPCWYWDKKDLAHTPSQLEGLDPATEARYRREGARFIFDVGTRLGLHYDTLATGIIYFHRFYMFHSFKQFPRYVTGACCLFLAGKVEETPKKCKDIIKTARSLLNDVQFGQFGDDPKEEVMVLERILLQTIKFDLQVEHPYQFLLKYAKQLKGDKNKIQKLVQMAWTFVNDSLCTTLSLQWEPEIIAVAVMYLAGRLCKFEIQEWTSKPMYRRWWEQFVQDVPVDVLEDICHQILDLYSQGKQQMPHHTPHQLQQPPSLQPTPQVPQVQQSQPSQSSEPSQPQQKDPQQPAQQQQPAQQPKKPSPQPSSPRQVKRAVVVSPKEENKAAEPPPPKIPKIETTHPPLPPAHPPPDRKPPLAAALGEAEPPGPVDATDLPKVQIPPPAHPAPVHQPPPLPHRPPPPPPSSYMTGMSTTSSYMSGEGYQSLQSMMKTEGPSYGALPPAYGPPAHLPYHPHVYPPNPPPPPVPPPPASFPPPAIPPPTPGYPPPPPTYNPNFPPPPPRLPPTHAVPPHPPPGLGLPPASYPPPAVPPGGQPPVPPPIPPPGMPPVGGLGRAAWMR

Regarding `COc1ccccc1-c1ncnc(Nc2cccc(CS(N)(=O)=O)c2)n1` [B1′, 3-[(4-(2-Methoxyphenyl)-1,3,5-triazin-2-yl)amino]benzenemethanesulfonamide trifluoroacetic acid salt], in test [1], the Kd is 0.0487 µM. In addition, the 50% inhibitory concentration (IC50) is 3.56 µM in test [2] and greater than 10 µM in test [3].

With `COc1cc(F)ccc1-c1ncnc(Nc2cccc(CS(N)(=O)=O)c2)n1` [B2″, 1-(3-{[4-(4-fluoro-2-methoxyphenyl)-1,3,5-triazin-2-yl]amino}phenyl)methanesulfonamide trifluoroacetic acid salt], in test [1], the Kd was determined as 0.005 µM. In addition, the IC50 in test [2] came to 1.6 µM; in test [3], 3.21 µM.

Turning to `NS(=O)(=O)Cc1cccc(Nc2ncnc(-c3ccccc3OCc3ccccc3)n2)c1` [B13′, 3-[(4-(2-Benzyloxyphenyl)-1,3,5-triazin-2-yl)amino]benzenemethanesulfonamide trifluoroacetic acid salt], in test [1], the Kd is 0.005 µM. Also, the figures for the concentration for half-maximal inhibition (IC50) in test [2] and in test [3] were 0.36 µM and 0.681 µM, respectively.

For the compound `COc1ccccc1-c1ncnc(Nc2cccc(S(N)(=O)=O)c2)n1` [C1′, 3-[(4-(2-Methoxyphenyl)-1,3,5-triazin-2-yl)amino]benzenesulfonamide trifluoroacetic acid salt], in test [1], the Kd was 0.005 µM. The half-maximal inhibitory concentration (IC50) stood at 1.47 µM in test [2] and 1.51 µM in test [3].

With `COc1ccc(F)cc1-c1ncnc(Nc2cccc(CS(N)(=O)=O)c2)n1` [Compound B3, 3-[(4-(5-Fluoro-2-methoxyphenyl)-1,3,5-triazin-2-yl)amino]benzenemethanesulfonamide], the Kd in test [1] amounted to 0.005 µM. The compound also returned a concentration for half-maximal inhibition (IC50) in test [2] of 2.47 µM.

`COc1cccc(F)c1-c1ncnc(Nc2cccc(CS(N)(=O)=O)c2)n1` [Compound B4, 3-[(4-(6-Fluoro-2-methoxyphenyl)-1,3,5-triazin-2-yl)amino]benzenemethanesulfonamide]: in test [1], the Kd came to 0.0209 µM. For the same compound, the results for the half-inhibitory concentration (IC50) in test [2] and in test [3] were 9.71 µM and greater than 10 µM, respectively.

For `COc1cc(Cl)ccc1-c1ncnc(Nc2cccc(CS(N)(=O)=O)c2)n1` [Compound B6, 3-[(4-(4-Chloro-2-methoxyphenyl)-1,3,5-triazin-2-yl)amino]benzenemethanesulfonamide], the Kd in test [1] was 0.0125 µM. The IC50 in test [2] is 2.49 µM; in test [3] it was greater than 10 µM.

As for `CCOc1ccccc1-c1ncnc(Nc2cccc(CS(N)(=O)=O)c2)n1` [Compound B12, 3-[(4-(2-Ethoxyphenyl)-1,3,5-triazin-2-yl)amino]benzenemethanesulfonamide], the Kd in test [1] was 0.0111 µM. Besides, the IC50 was 3.67 µM in test [2] and greater than 10 µM in test [3].

On to `NS(=O)(=O)Cc1cccc(Nc2ncnc(-c3ccccc3Oc3ccccc3)n2)c1` [Compound B14, 1-(3-{[4-(2-phenoxyphenyl)-1,3,5-triazin-2-yl]amino}phenyl)methanesulfonamide], for which, in test [1], the Kd turned out to be 0.0264 µM. In test [2], the IC50 worked out at 3.96 µM.

Take `NS(=O)(=O)Cc1cccc(Nc2ncnc(-c3ccccc3OCc3ccncc3)n2)c1` [Compound B16, 3-[(4-(2-((4-Pyridinyl)methoxy)phenyl)-1,3,5-triazin-2-yl)amino]benzenemethanesulfonamide]: in test [1], the Kd is 0.0057 µM. Also, the half-maximal inhibitory concentration (IC50) was 0.96 µM in test [2] and greater than 10 µM in test [3].

As for `COc1cnccc1-c1ncnc(Nc2cccc(CS(N)(=O)=O)c2)n1` [Compound B19, 3-[(4-(3-Methoxypyridin-4-yl)-1,3,5-triazin-2-yl)amino]benzenemethanesulfonamide], the Kd in test [1] was 0.0115 µM. Besides, in test [2], it took 19.9 µM to reach half-maximal inhibition (IC50).

Regarding `COc1ccccc1-c1ncnc(Nc2cccc(CCS(N)(=O)=O)c2)n1` [Compound D1, 2-[3-((4-(2-Methoxyphenyl)-1,3,5-triazin-2-yl)amino)phenyl]ethanesulfonamide], in test [1], the Kd was 0.0995 µM. Moreover, the concentration for half-maximal inhibition (IC50) was found to be 4.98 µM in test [2] and 9.32 µM in test [3].

Turning to `COc1cc(F)ccc1-c1ncnc(Nc2cccc(CCS(N)(=O)=O)c2)n1` [Compound D2, 2-[3-((4-(4-Fluoro-2-methoxyphenyl)-1,3,5-triazin-2-yl)amino)phenyl]ethanesulfonamide], in test [1], the Kd stood at 0.005 µM. Further, the values for the IC50 in test [2] and in test [3] were 1.63 µM and greater than 10 µM, respectively.

As for `COc1ccccc1-c1ncnc(Nc2cccc([N+](=O)[O-])c2)n1` [Compound H1, 4-(2-Methoxyphenyl)-N-(3-nitrophenyl)-1,3,5-triazine-2-amine], the Kd in test [1] was 0.0158 µM. Also, in test [2], half-maximal inhibition (IC50) required 2.67 µM.

For the compound `COc1ccccc1-c1ncnc(Nc2cccc(NS(C)(=O)=O)c2)n1` [Compound K1, N-[3-((4-(2-Methoxyphenyl)-1,3,5-triazin-2-yl)amino)phenyl]-methanesulfonamide], in test [1], the Kd is 0.0359 µM. The half-inhibitory concentration (IC50) in test [2] was 5.52 µM; in test [3] it was greater than 10 µM.

Turning to `CCCS(=O)(=O)Nc1cccc(Nc2ncnc(-c3ccccc3OC)n2)c1` [Compound L1, N-[3-((4-(2-Methoxyphenyl)-1,3,5-triazin-2-yl)amino)phenyl]-propanesulfonamide], the IC50 in test [2] is 6.53 µM; in test [3], greater than 10 µM.

With `COc1ccccc1-c1ncnc(Nc2ccccc2)n1` [Compound P1, 4-(2-Methoxyphenyl)-N-phenyl-1,3,5-triazine-2-amine], in test [2], half-maximal inhibition (IC50) was put at 18.8 µM.
